ChEMBL document CHEMBL1201862, “PubChem BioAssay data set” (2004)
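The compound was tested at five concentrations on cells cultured in 96-well plates, with a 48-hour exposure period. At the GI50, growth is halved.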 The source made the active and inactive calls. No stated cut-off is given here; in the data, active = GI50 up to about 1.1 µM and inactive = higher.

Columns and labels:
Assay in all cases: growth of human tumour cells (NCI), 48 h
[1] = test system: A498
[2] = test system: A549
[3] = test system: BT-549
[4] = test system: EKVX
[5] = test system: HCT-116
[6] = test system: KM12
[7] = test system: LOX IMVI
[8] = test system: M14
[9] = test system: MDA-MB-231
[10] = test system: MDA-MB-435
[11] = test system: NCI-H23
[12] = test system: NCI/ADR-RES
[13] = test system: RXF 393
[14] = test system: SK-MEL-28
[15] = test system: SN12C
[16] = test system: SW-620
[17] = test system: TK-10
[18] = test system: U-251
[19] = test system: UACC-257
[20] = test system: UO-31

| SMILES | GI50 [1] | GI50 [2] | GI50 [3] | GI50 [4] | GI50 [5] | GI50 [6] | GI50 [7] | GI50 [8] | GI50 [9] | GI50 [10] | GI50 [11] | GI50 [12] | GI50 [13] | GI50 [14] | GI50 [15] | GI50 [16] | GI50 [17] | GI50 [18] | GI50 [19] | GI50 [20] |
| --- | --- | --- | --- | --- | --- | --- | --- | --- | --- | --- | --- | --- | --- | --- | --- | --- | --- | --- | --- | --- |
| Sc1nc2c(c(-c3nc(S)nc4c3CCCCCCCCCC4)n1)CCCCCCCCCC2 | > 100 µM (inactive) | > 100 µM (inactive) | > 100 µM (inactive) | > 100 µM (inactive) | > 100 µM (inactive) | > 100 µM (inactive) | > 100 µM (inactive) | > 100 µM (inactive) | > 100 µM (inactive) | > 100 µM (inactive) | > 100 µM (inactive) | > 100 µM (inactive) | > 100 µM (inactive) | > 100 µM (inactive) | > 100 µM (inactive) | > 100 µM (inactive) | > 100 µM (inactive) | > 100 µM (inactive) | > 100 µM (inactive) | > 100 µM (inactive) |
| COc1cc2c(NCCCCCCO[N+](=O)[O-])ncnc2c(OC)c1OC | 18.1 µM (inactive) | 28.7 µM (inactive) | 23.1 µM (inactive) | 22.5 µM (inactive) | 20.6 µM (inactive) | 16.2 µM (inactive) | 20.2 µM (inactive) | 16.9 µM (inactive) | 14.2 µM (inactive) | 18.1 µM (inactive) | 19.1 µM (inactive) | 21.7 µM (inactive) | 17.9 µM (inactive) | 45.1 µM (inactive) | 28.7 µM (inactive) | 26.2 µM (inactive) | 20.9 µM (inactive) | 35.2 µM (inactive) | 17.8 µM (inactive) | 7.93 µM (inactive) |
| CC1CC[C@@]2(OC1)OC1C[C@H]3[C@@H]4CC[C@H]5CC(OC6OC(CO)C(OC7OC(CO)C(O)C(O)C7O)C(O)C6O)CCC5(C)[C@H]4CCC3(C)C1[C@@H]2C (stereo not given in full) | 8.65 µM (inactive) | 9.35 µM (inactive) | 4.86 µM (inactive) | 5.33 µM (inactive) | 7.53 µM (inactive) | 8.18 µM (inactive) | 4.58 µM (inactive) | 8.89 µM (inactive) | 9.1 µM (inactive) | 9.25 µM (inactive) | 8.81 µM (inactive) | 9.64 µM (inactive) | 10.7 µM (inactive) | 9.2 µM (inactive) | 7.35 µM (inactive) | 8.81 µM (inactive) | 9.64 µM (inactive) | 8.99 µM (inactive) | 9.64 µM (inactive) | 11.1 µM (inactive) |
| C[C@]12CC[C@@H]3c4ccc(OCC(=O)O)cc4CC[C@H]3[C@@H]1CCC2=O | > 100 µM (inactive) | > 100 µM (inactive) | > 100 µM (inactive) | > 100 µM (inactive) | > 100 µM (inactive) | > 100 µM (inactive) | > 100 µM (inactive) | > 100 µM (inactive) | > 100 µM (inactive) | > 100 µM (inactive) | > 100 µM (inactive) | > 100 µM (inactive) | > 100 µM (inactive) | > 100 µM (inactive) | > 100 µM (inactive) | > 100 µM (inactive) | > 100 µM (inactive) | > 100 µM (inactive) | > 100 µM (inactive) | > 100 µM (inactive) |
| CSc1c(C(=O)Nc2ccccc2)c(N)nn1-c1ccccc1 | > 100 µM (inactive) | > 100 µM (inactive) | > 100 µM (inactive) | > 100 µM (inactive) | > 100 µM (inactive) | > 100 µM (inactive) | > 100 µM (inactive) | > 100 µM (inactive) | > 100 µM (inactive) | > 100 µM (inactive) | > 100 µM (inactive) | > 100 µM (inactive) | 56.9 µM (inactive) | > 100 µM (inactive) | > 100 µM (inactive) | > 100 µM (inactive) | > 100 µM (inactive) | > 100 µM (inactive) | > 100 µM (inactive) | 67.9 µM (inactive) |
| O=C(O)CSc1nnc(CCCCCCCCc2nnc(SCC(=O)O)o2)o1 | > 100 µM (inactive) | > 100 µM (inactive) | > 100 µM (inactive) | > 100 µM (inactive) | > 100 µM (inactive) | > 100 µM (inactive) | > 100 µM (inactive) | > 100 µM (inactive) | > 100 µM (inactive) | > 100 µM (inactive) | > 100 µM (inactive) | > 100 µM (inactive) | 38.5 µM (inactive) | > 100 µM (inactive) | > 100 µM (inactive) | > 100 µM (inactive) | > 100 µM (inactive) | > 100 µM (inactive) | > 100 µM (inactive) | > 100 µM (inactive) |
| C=C(CN(C)C)C(=O)c1ccccc1OC | 28.4 µM (inactive) | > 67.8 µM (inactive) | 17.4 µM (inactive) | 25.8 µM (inactive) | 15.6 µM (inactive) | 25.3 µM (inactive) | 13.8 µM (inactive) | 12 µM (inactive) | 14.4 µM (inactive) | 19.5 µM (inactive) | 17.9 µM (inactive) | 20.7 µM (inactive) | 7.85 µM (inactive) | 20.2 µM (inactive) | 18.9 µM (inactive) | 4.31 µM (inactive) | 16.1 µM (inactive) | 24.5 µM (inactive) | 15.6 µM (inactive) | 16.4 µM (inactive) |
| CCOC(=O)C1C(=O)CC(O)(c2ccccc2)C(C(=O)OCC)C1c1ccc(N(C)C)cc1 (stereo not given) | 31.6 µM (inactive) | 35.5 µM (inactive) | 28.6 µM (inactive) | 40.9 µM (inactive) | 23.8 µM (inactive) | 20.3 µM (inactive) | 27.5 µM (inactive) | 35.6 µM (inactive) | 28.2 µM (inactive) | 5.04 µM (inactive) | > 45.7 µM (inactive) | 26.6 µM (inactive) | 14.7 µM (inactive) | 45.6 µM (inactive) | 50.2 µM (inactive) | 19.8 µM (inactive) | > 59.8 µM (inactive) | 24.7 µM (inactive) | 63.8 µM (inactive) | 49.8 µM (inactive) |
| COc1cc(/C=C2/SC(c3ccccc3)N(c3ccc(Cl)cc3)C2=O)cc(OC)c1OC (stereo not given) | > 80 µM (inactive) | > 41.5 µM (inactive) | > 59 µM (inactive) | > 52.6 µM (inactive) | 0.897 µM (active) | 5.46 µM (inactive) | 50.8 µM (inactive) | 0.964 µM (active) | > 100 µM (inactive) | 0.436 µM (active) | 17.9 µM (inactive) | 25.9 µM (inactive) | 49.7 µM (inactive) | > 56.6 µM (inactive) | > 32 µM (inactive) | 57.4 µM (inactive) | > 100 µM (inactive) | > 72.6 µM (inactive) | 47.2 µM (inactive) | 10.9 µM (inactive) |
| O=C1c2ccccc2C2CNC1(O)c1ccccc12 (stereo not given) | > 100 µM (inactive) | > 100 µM (inactive) | > 100 µM (inactive) | > 100 µM (inactive) | > 100 µM (inactive) | > 100 µM (inactive) | > 100 µM (inactive) | > 100 µM (inactive) | > 100 µM (inactive) | > 100 µM (inactive) | > 100 µM (inactive) | > 100 µM (inactive) | > 100 µM (inactive) | > 100 µM (inactive) | > 100 µM (inactive) | > 100 µM (inactive) | > 100 µM (inactive) | > 100 µM (inactive) | > 100 µM (inactive) | > 100 µM (inactive) |
| Cn1cc(S(=O)(=O)NC(=O)Nc2ccc(Cl)cc2)c2ccccc21 | > 100 µM (inactive) | 63.4 µM (inactive) | > 100 µM (inactive) | > 100 µM (inactive) | 32.4 µM (inactive) | 28.5 µM (inactive) | 93.1 µM (inactive) | > 100 µM (inactive) | > 100 µM (inactive) | 52.1 µM (inactive) | > 100 µM (inactive) | 38.6 µM (inactive) | > 100 µM (inactive) | > 100 µM (inactive) | > 100 µM (inactive) | 50.6 µM (inactive) | 21.4 µM (inactive) | 41.9 µM (inactive) | > 100 µM (inactive) | 44.8 µM (inactive) |
| Nc1ccc2c(=O)cc(-c3cccs3)[nH]c2n1 | > 37.8 µM (inactive) | 3.65 µM (inactive) | 4.88 µM (inactive) | 6.5 µM (inactive) | 1.25 µM (inactive) | 0.535 µM (active) | 1.07 µM (active) | 1.6 µM (inactive) | 11.8 µM (inactive) | 0.285 µM (active) | 2.89 µM (inactive) | 1.06 µM (active) | 4.17 µM (inactive) | 4.32 µM (inactive) | 5.16 µM (inactive) | 1.01 µM (active) | 7.13 µM (inactive) | 2.75 µM (inactive) | 5.9 µM (inactive) | 3.54 µM (inactive) |
| NC(=O)c1ccc(N)nc1 [6-AMINONICOTINAMIDE] | 14.9 µM (inactive) | 54.5 µM (inactive) | 14.1 µM (inactive) | 21.7 µM (inactive) | > 187 µM (inactive) | 48.1 µM (inactive) | 3.35 µM (inactive) | 6.24 µM (inactive) | 39.4 µM (inactive) | 4.66 µM (inactive) | 9.98 µM (inactive) | > 245 µM (inactive) | 0.138 µM (active) | 3.37 µM (inactive) | 15.9 µM (inactive) | 82 µM (inactive) | > 400 µM (inactive) | 1.85 µM (inactive) | 0.986 µM (active) | 29.4 µM (inactive) |
| CC(=O)OC(C)(C)/C=C/C(=O)[C@](C)(O)[C@H]1[C@H](O)C[C@@]2(C)[C@@H]3CC=C4[C@@H](C=C(O)C(=O)C4(C)C)[C@]3(C)C(=O)C[C@]12C [CUCURBITACIN E] | 0.0247 µM (active) | 0.0296 µM (active) | 0.027 µM (active) | 0.118 µM (active) | 0.034 µM (active) | 0.504 µM (active) | 0.0101 µM (active) | 0.0375 µM (active) | 0.0537 µM (active) | 0.604 µM (active) | 0.055 µM (active) | 0.129 µM (active) | 0.0177 µM (active) | 0.024 µM (active) | 0.0394 µM (active) | 0.0438 µM (active) | 0.0479 µM (active) | 0.0203 µM (active) | 0.0385 µM (active) | 0.0235 µM (active) |
